Where two headings read alike, the source gives them in different places.
Biological target: androgen receptor (hAR) (Homo sapiens (Human), UniProt P10275)
Experiment: Test of transcriptional activity (hAR / ARE-Luc dual-luciferase assay in CHO cells)
Format: cell-based
Conditions: CHO cells with hAR and ARE-Luc, 24 hours, 10 nM DHT = 100%
Procedure: In order to examine the transcriptional activity of the agonists of the present invention, the following in-vitro experiment was performed. CHO (Chinese hamster ovary) cell line (ATCC, #CCL-61) was seeded in a 96-well plate at a density of 1.5×10^4 cells/well, and cultured for 24 hours. Then, a plasmid hAR and plasmid ARE-Luc-mixed medium was added thereto. The transfected cell line was treated with 0.1˜10,000 nM of SARM derivatives, and then allowed to react for 24 hours.

[1] = read-out: EC50 [nM] (mean ± SE)

Sequence of androgen receptor (hAR) (P10275 whole entry): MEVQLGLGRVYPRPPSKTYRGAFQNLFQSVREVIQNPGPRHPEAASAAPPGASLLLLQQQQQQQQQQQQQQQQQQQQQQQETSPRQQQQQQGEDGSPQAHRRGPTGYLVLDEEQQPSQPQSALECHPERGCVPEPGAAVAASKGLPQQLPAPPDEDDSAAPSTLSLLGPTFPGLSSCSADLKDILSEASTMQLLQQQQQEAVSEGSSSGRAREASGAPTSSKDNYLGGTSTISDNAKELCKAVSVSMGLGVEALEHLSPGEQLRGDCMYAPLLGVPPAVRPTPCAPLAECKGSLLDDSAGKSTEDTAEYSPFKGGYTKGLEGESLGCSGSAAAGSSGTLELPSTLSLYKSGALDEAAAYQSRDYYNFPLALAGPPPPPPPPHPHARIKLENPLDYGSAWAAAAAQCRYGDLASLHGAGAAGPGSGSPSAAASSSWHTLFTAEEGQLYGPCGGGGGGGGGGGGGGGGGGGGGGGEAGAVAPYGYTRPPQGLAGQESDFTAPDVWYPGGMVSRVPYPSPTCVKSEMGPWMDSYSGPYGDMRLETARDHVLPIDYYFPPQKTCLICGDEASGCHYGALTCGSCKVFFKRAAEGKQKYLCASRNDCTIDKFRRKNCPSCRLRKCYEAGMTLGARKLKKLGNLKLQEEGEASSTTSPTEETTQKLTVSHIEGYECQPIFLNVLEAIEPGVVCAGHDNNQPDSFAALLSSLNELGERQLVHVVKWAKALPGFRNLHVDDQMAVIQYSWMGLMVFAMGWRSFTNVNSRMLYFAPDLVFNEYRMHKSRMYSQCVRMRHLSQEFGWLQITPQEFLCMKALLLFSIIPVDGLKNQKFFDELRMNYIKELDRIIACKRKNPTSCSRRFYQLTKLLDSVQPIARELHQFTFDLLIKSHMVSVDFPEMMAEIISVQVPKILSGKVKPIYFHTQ

Molecule	EC50 (EC50 [nM] (mean ± SE))	EC50 [1]
N#Cc1ccc(N2C[C@@H](COc3ccc(NC(=O)[C@@H]4CCCN4)cc3)O[C@@H]2C(F)(F)F)cc1C(F)(F)F [Example 51, (S)-N-(4-(((2R,5S)-3-(4-cyano-3-(trifluoromethyl)phenyl)-2-(trifluoromethyl)oxazolidin-5-yl)methoxy)phenyl)pyrrolidine-2-carboxamide 2,2,2-trifluoroacetate]	165 nM	
N#Cc1ccc(N2C[C@@H](COc3ccncc3)O[C@@H]2C(F)(F)F)cc1Cl [Example 72, 2-chloro-4-((2R,5S)-5-((pyridin-4-yloxy)methyl)-2-(trifluoromethyl)oxazolidin-3-yl)benzonitrile]	1.03 nM	
N#Cc1ccc(NC(=O)[C@@H]2CN(c3ccc(C#N)c(C(F)(F)F)c3)[C@@H](C(F)(F)F)O2)cc1C(F)(F)F [Example 144, (2R,5S)-N,3-bis(4-cyano-3-(trifluoromethyl)phenyl)-2-(trifluoromethyl)oxazolidine-5-carboxamide]	11.1 nM	
N#Cc1ccc(NC(=O)[C@@H]2CN(c3ccc(C#N)c(C(F)(F)F)c3)[C@@H](C(F)(F)F)O2)cc1F [Example 147, (2R,5S)-3-(4-cyano-3-(trifluoromethyl)phenyl)-N-(4-cyano-3-fluorophenyl)-2-(trifluoromethyl)oxazolidine-5-carboxamide]	768 nM	
N#Cc1ccc(OC[C@@H]2CN(c3ccc(C#N)c(C(F)(F)F)c3)[C@@H](C(F)(F)F)O2)c([N+](=O)[O-])c1 [Example 99, 4-((2R,5S)-5-((4-cyano-2-nitrophenoxy)methyl)-2-(trifluoromethyl)oxazolidin-3-yl)-2-(trifluoromethyl)benzonitrile]	97.3 nM	
N#Cc1ccc(N2C[C@@H](C(=O)N3CCC(C#N)CC3)O[C@@H]2C(F)(F)F)cc1C(F)(F)F [Example 167]	44 nM	
(2R,5S)-N-(3-chloro-4-cyano-2-fluorophenyl)-3-(4-cyano-3-(trifluoromethyl)phenyl)-2-(trifluoromethyl)oxazolidine-5-carboxamide [Example 130]		10.2 nM
(2R,5S)-3-(3-chloro-4-cyanophenyl)-N-(pyridin-4-yl)-2-(trifluoromethyl)oxazolidine-5-carboxamide [Example 121]		616 nM
N#Cc1ccc(N2C[C@@H](COc3ccc(NC(=O)CN)cc3)O[C@@H]2C(F)(F)F)cc1C(F)(F)F [Example 50, 2-amino-N-(4-(((2R,5S)-3-(4-cyano-3-(trifluoromethyl)phenyl)-2-(trifluoromethyl)oxazolidin-5-yl)methoxy)phenyl)acetamide 2,2,2-trifluoroacetate]	15.6 nM	
CCC(=O)Nc1ccc(NC(=O)[C@@H]2CN(c3ccc(C#N)c(C(F)(F)F)c3)[C@@H](C(F)(F)F)O2)cc1 [Example 158, (2R,5S)-3-(4-cyano-3-(trifluoromethyl)phenyl)-N-(4-propionamidophenyl)-2-(trifluoromethyl)oxazolidine-5-carboxamide]	12.5 nM	
O=[N+]([O-])c1ccc(N2C[C@@H](COc3ccc(/C=N/O)cc3)O[C@@H]2C(F)(F)F)cc1C(F)(F)F [Example 87, (E)-4-(((2R,5S)-3-(4-nitro-3-(trifluoromethyl)phenyl)-2-(trifluoromethyl)oxazolidin-5-yl)methoxy)benzaldehyde oxime]		9.22 nM
COC(=O)N1CCN(C(=O)[C@@H]2CN(c3ccc([N+](=O)[O-])c(C)c3)[C@@H](C(F)(F)F)O2)CC1 [Example 179, methyl 4-((2R,5S)-3-(3-methyl-4-nitrophenyl)-2-(trifluoromethyl)oxazolidine-5-carbonyl)piperazine-1-carboxylate]		42 nM
(2R,5S)-N-(4-cyano-2,6-difluorophenyl)-3-(4-cyano-3-(trifluoromethyl)phenyl)-2-(trifluoromethyl)oxazolidine-5-carboxamide [Example 129]		4.68 nM

Source: patent US9809583B2 (priority 2014, dated 2017)
